Among the data in US8987314B2, “Amide, urea or sulfone amide linked benzothiazole inhibitors of endothelial lipase” (Bristol-Myers Squibb Company, priority 2012, dated 2015) are IC50 values, retold here.

For one test, the target named is Endothelial lipase (EL) (Homo sapiens (Human), UniProt Q9Y5X9). Description: EL assay: endothelial lipase activity with fluorescent substrate A10070 in DMPG vesicles. The test is classed as biochemical. Summed up: (§1)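 Compounds were preincubated with enzyme for 30 min at 37° C before FRET-substrate vesicles (A10070 in DMPG, 0.11 mole fraction) were added. Reaction rates were obtained from the 300–900 sec slope of fluorescence at 490/530 nm.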
Sequence of Endothelial lipase (EL) (Q9Y5X9 21-500): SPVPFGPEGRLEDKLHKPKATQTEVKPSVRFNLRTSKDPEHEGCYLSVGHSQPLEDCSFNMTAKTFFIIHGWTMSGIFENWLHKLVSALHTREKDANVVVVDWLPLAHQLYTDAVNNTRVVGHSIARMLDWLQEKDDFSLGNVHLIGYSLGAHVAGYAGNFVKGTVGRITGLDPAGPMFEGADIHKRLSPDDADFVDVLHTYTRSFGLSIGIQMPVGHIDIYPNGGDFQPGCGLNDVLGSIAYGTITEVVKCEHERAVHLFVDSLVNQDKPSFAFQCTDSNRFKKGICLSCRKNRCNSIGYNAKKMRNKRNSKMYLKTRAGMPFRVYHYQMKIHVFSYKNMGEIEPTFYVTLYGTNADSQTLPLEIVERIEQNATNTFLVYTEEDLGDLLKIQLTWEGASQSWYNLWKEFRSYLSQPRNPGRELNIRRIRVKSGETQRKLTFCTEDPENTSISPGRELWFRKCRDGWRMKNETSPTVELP

The target of another test is hepatic lipase (HL) (Homo sapiens (Human), UniProt P11150). Description: HL assay: hepatic lipase activity with fluorescent substrate A10070 in DMPG vesicles. The test is classed as biochemical. A digest of the protocol: as §1
Sequence of hepatic lipase (HL) (P11150 23-499, species assumed): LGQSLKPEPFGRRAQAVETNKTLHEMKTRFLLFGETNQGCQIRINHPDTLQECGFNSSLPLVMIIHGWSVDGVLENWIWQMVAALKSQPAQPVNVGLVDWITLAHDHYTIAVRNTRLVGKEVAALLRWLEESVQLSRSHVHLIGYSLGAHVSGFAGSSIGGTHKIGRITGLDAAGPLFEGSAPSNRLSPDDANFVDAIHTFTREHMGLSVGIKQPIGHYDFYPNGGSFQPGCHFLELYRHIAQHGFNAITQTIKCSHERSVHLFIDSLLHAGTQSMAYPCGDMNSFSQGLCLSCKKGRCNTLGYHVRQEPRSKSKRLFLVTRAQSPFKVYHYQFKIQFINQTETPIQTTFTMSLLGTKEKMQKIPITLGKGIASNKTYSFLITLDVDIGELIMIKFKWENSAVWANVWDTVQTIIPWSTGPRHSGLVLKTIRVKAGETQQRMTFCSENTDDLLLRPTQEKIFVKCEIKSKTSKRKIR
[1] abbreviates: EL from conditioned media of HT-1080 cells, 30 min incubation with compound at 37° C., A10070/DMPG vesicles.
Setting [2] is: HL partially purified from conditioned media of COS cells, 30 min incubation with compound at 37° C., A10070/DMPG vesicles.

Like-named read-outs stand apart in the source and are kept apart here.

Consider `CS(=O)(=O)C(C(=O)NCCS(N)(=O)=O)c1nc2ccc(-c3ccc(C(=O)N4CCC(O)CC4)cc3)cc2s1` (centres unmarked) [Example B177, 2-(6-(4-((4-hydroxy-1-piperidinyl)carbonyl)phen-yl)-1,3-benzothiazol-2-yl)-2-(methylsulfonyl)-N-(2-sulfamoylethyl)a-cetamide], for which the IC50 (commonly the point on the concentration scale where inhibition reaches its midpoint) against Endothelial lipase (EL) is below 0.01 µM; at hepatic lipase (HL) it was 0.495 µM.
As to `CS(=O)(=O)C(C(=O)NCCS(N)(=O)=O)c1nc2ccc(-c3ccc(C(=O)NC4COC4)cc3)cc2s1` (centres unmarked) [Example B178, 4-(2-(1-(methylsulfonyl)-2-oxo-2-((2-sulfamoylethyl)a-mino)ethyl)-1,3-benzothiazol-6-yl)-N-3-oxetanylbenzamide], the figures for the IC50 against Endothelial lipase (EL) and at hepatic lipase (HL) were below 0.01 µM and 0.091 µM, respectively.
In the case of `COCCNC(=O)c1cccc(-c2ccc3nc(C(C(=O)NCCS(N)(=O)=O)S(=O)(=O)CCC(F)(F)F)sc3c2)c1` (centres unmarked) [Example B179, N-(2-Methoxyethyl)-3-(2-(2-oxo-2-((2-sulfamoyl-ethyl)amino)-1-((3,3,3-trifluoropropyl)sulfonyl)eth-yl)benzo[d]thiazol-6-yl)benzamide], the results for the 50% inhibitory concentration (IC50) against Endothelial lipase (EL) and against hepatic lipase (HL) were 0.024 µM and 0.17 µM, respectively.
As to `CS(=O)(=O)C(C(=O)NCCS(N)(=O)=O)c1nc2ccc(-c3ccc4c(c3)CC(=O)N4)cc2s1` (centres unmarked) [Example B180, 2-(Methylsulfonyl)-2-(6-(2-oxo-2,3-dihydro-1H-indol-5-yl)-1,3-benzothiazol-2-yl)-N-(2-sulfamoylethyl)acetamide], the figures for the concentration for half-maximal inhibition (IC50) at Endothelial lipase (EL) (setting [1]) and at hepatic lipase (HL) (setting [2]) were below 0.01 µM and 0.17 µM, respectively.
Consider `CS(=O)(=O)C(C(=O)NCCS(N)(=O)=O)c1nc2ccc(-c3ccc4c(c3)C(=O)NC4)cc2s1` (centres unmarked) [Example B181, 2-(methylsulfonyl)-2-(6-(3-oxo-2,3-dihydro-1H-isoindol-5-yl)-1,3-benzothiazol-2-yl)-N-(2-sulfamoylethyl)acetamide], for which the IC50 at Endothelial lipase (EL) was below 0.01 µM; against hepatic lipase (HL), 0.145 µM.
Turning to `CS(=O)(=O)C(C(=O)NCCS(N)(=O)=O)c1nc2ccc(-c3ccc4c(c3)CNC4=O)cc2s1` (centres unmarked) [Example B182, 2-(methylsulfonyl)-2-(6-(1-oxo-2,3-dihydro-1H-isoindol-5-yl)-1,3-benzothiazol-2-yl)-N-(2-sulfamoylethyl)acetamide], the IC50 at Endothelial lipase (EL) was below 0.01 µM; at hepatic lipase (HL) it was 0.036 µM.
For the compound `CS(=O)(=O)C(C(=O)NCCS(N)(=O)=O)c1nc2ccc(-c3ccc4c(c3)NC(=O)C4)cc2s1` (centres unmarked) [Example B183, 2-(methylsulfonyl)-2-(6-(2-oxo-2,3-dihydro-1H-indol-6-yl)-1,3-benzothiazol-2-yl)-N-(2-sulfamoylethyl)a-cetamide], the IC50 is below 0.01 µM on Endothelial lipase (EL) and 0.139 µM against hepatic lipase (HL).
In the case of `COc1ncccc1-c1ccc2nc(C(C(=O)NCCS(N)(=O)=O)S(C)(=O)=O)sc2c1` (centres unmarked) [Example B184, 2-(6-(2-methoxy-3-pyridinyl)-1,3-benzothiazol-2-yl)-2-(methylsulfonyl)-N-(2-sulfamoylethyl)acetamide], the IC50 at Endothelial lipase (EL) is below 0.01 µM; against hepatic lipase (HL), 0.065 µM.
In the case of `COc1cccc(-c2ccc3nc(C(C(=O)NCCS(N)(=O)=O)S(C)(=O)=O)sc3c2)n1` (centres unmarked) [Example B185, 2-(6-(6-methoxy-2-pyridinyl)-1,3-benzothiazol-2-yl)-2-(methylsulfonyl)-N-(2-sulfamoylethyl)acetamide], the IC50 at Endothelial lipase (EL) and against hepatic lipase (HL) was below 0.01 µM throughout.
For the compound `CC(C)(O)Cn1cc(-c2ccc3nc(C(C(=O)NCCS(N)(=O)=O)S(C)(=O)=O)sc3c2)ccc1=O` (centres unmarked) [Example B186, 2-(6-(1-(2-hydroxy-2-methylpropyl)-6-oxo-1,6-dihydro-3-pyridinyl)-1,3-benzothiazol-2-yl)-2-(methylsulfonyl)-N-(2-sulfamoylethyl)acetamide], the IC50 on Endothelial lipase (EL) was 0.0011 µM; against hepatic lipase (HL), 10 µM.
As to `CS(=O)(=O)C(C(=O)NCCS(N)(=O)=O)c1nc2ccc(-c3ccc(O)nc3)cc2s1` (centres unmarked) [Example B187, 2-(Methylsulfonyl)-2-(6-(6-oxo-1,6-dihydro-3-pyridinyl)-1,3-benzothiazol-2-yl)-N-(2-sulfamoylethyl)acetamide], the half-maximal inhibitory concentration (IC50) at Endothelial lipase (EL) (setting [1]) worked out at 0.016 µM; at hepatic lipase (HL) (setting [2]), 0.155 µM.
`CS(=O)(=O)C(C(=O)NCCS(N)(=O)=O)c1nc2ccc(-c3cccc(O)n3)cc2s1` (centres unmarked) [Example B188, 2-(methylsulfonyl)-2-(6-(6-oxo-1,6-dihydro-2-pyridinyl)-1,3-benzothiazol-2-yl)-N-(2-sulfamoylethyl)acetamide]: the IC50 was below 0.01 µM against Endothelial lipase (EL) and 0.398 µM at hepatic lipase (HL).
Regarding `CS(=O)(=O)C(C(=O)NCCS(N)(=O)=O)c1nc2ccc(-c3ccnc(O)c3)cc2s1` (centres unmarked) [Example B189, 2-(methylsulfonyl)-2-(6-(2-oxo-1,2-dihydro-4-pyridinyl)-1,3-benzothiazol-2-yl)-N-(2-sulfamoylethyl)acetamide], the values for the IC50 against Endothelial lipase (EL) and at hepatic lipase (HL) were below 0.01 µM and 0.013 µM, respectively.
As to `COCCS(=O)(=O)C(C(=O)NCCS(N)(=O)=O)c1nc2ccc(-c3ccnc(O)c3)cc2s1` (centres unmarked) [Example B190, 2-((2-methoxyethyl)sul-fonyl)-2-(6-(2-oxo-1,2-dihydro-4-pyridinyl)-1,3-benzothiazol-2-yl)-N-(2-sulfamoylethyl)acetamide], the IC50 on Endothelial lipase (EL) is below 0.01 µM; against hepatic lipase (HL), 0.272 µM.
As for `NS(=O)(=O)CCNC(=O)C(c1nc2ccc(-c3ccnc(O)c3)cc2s1)S(=O)(=O)CCC(F)(F)F` (centres unmarked) [Example B191, 2-(6-(2-oxo-1,2-dihydro-4-pyridinyl)-1,3-benzothiazol-2-yl)-N-(2-sulfamoylethyl)-2-((3,3,3-trifluoropropyl)sulfonyl)a-cetamide], the IC50 against Endothelial lipase (EL) was below 0.01 µM; at hepatic lipase (HL), 0.445 µM.
On the same counts, the results for `CS(=O)(=O)C(C(=O)NCCS(N)(=O)=O)c1nc2ccc(-c3cc(O)ncc3F)cc2s1` (centres unmarked) [Example B192, 2-(6-(5-fluoro-2-oxo-1,2-dihydro-4-pyridinyl)-1,3-benzothiazol-2-yl)-2-(methylsulfonyl)-N-(2-sulfamoylethyl)acetamide] are below 0.01 µM and 20.6 µM.
In the case of `CS(=O)(=O)C(C(=O)NCCS(N)(=O)=O)c1nc2ccc(-c3ccnc(O)c3F)cc2s1` (centres unmarked) [Example B193, 2-[6-(3-fluoro-2-hydroxy-4-pyridinyl)-1,3-benzothiazol-2-yl]-2-(methylsulfonyl)-N-(2-sulfamoylethyl)acetamide], the half-inhibitory concentration (IC50) against Endothelial lipase (EL) came to 0.0005 µM; at hepatic lipase (HL) it was 0.238 µM.
On the same counts, the results for `CS(=O)(=O)C(C(=O)NCCS(N)(=O)=O)c1nc2cc(-c3ccnc(O)c3)ccc2s1` (centres unmarked) [Example B194, 2-(methylsulfonyl)-2-(5-(2-oxo-1,2-dihydro-4-pyridinyl)-1,3-benzothiazol-2-yl)-N-(2-sulfamoylethyl)acetamide] are 0.002 µM and 0.095 µM.
For `CS(=O)(=O)C(C(=O)NCCS(N)(=O)=O)c1nc2cc(-c3ccc(O)nc3)ccc2s1` (centres unmarked) [Example B195, 2-(methylsulfonyl)-2-(5-(6-oxo-1,6-dihydro-3-pyridinyl)-1,3-benzothiazol-2-yl)-N-(2-sulfamoylethyl)acetamide], the IC50 on Endothelial lipase (EL) turned out to be 0.001 µM; against hepatic lipase (HL), 0.105 µM.
On to `CC(C)(C)OC(=O)c1ccc2nc(C(C(=O)NCCS(N)(=O)=O)S(=O)(=O)CCC(F)(F)F)sc2c1` (centres unmarked) [Example B196, tert-Butyl 2-(2-oxo-2-((2-sulfamoylethyl)amino)-1-((3,3-trifluoropropyl)sulfonyl)ethyl)benzo[d]thiazole-6-carboxylate], for which the IC50 turned out to be 0.065 µM on Endothelial lipase (EL) (setting [1]) and 0.379 µM on hepatic lipase (HL) (setting [2]).
As to `NS(=O)(=O)CCNC(=O)C(c1nc2ccc(C(=O)N3CCC(F)(F)C3)cc2s1)S(=O)(=O)CCC(F)(F)F` (centres unmarked) [Example B197, 2-(6-(3,3-Difluoropyrrolidine-1-carbonyl)benzo[d]thiazol-2-yl)-N-(2-sulfamoylethyl)-2-((3,3,3-trifluoropropyl)sulfonyl)acetamide], the half-inhibitory concentration (IC50) at Endothelial lipase (EL) (setting [1]) was below 0.01 µM; on hepatic lipase (HL) (setting [2]), 10.1 µM.
For `NS(=O)(=O)CCNC(=O)C(c1nc2ccc(C(=O)NCCc3c[nH]cn3)cc2s1)S(=O)(=O)CCC(F)(F)F` (centres unmarked) [Example B198, N-(2-(1H-imidazol-4-yl)ethyl)-2-(2-oxo-2-((2-sulfamoylethyl)amino)-1-((3,3,3-trifluoropropyl)sul-fonyl)ethyl)-1,3-benzothiazole-6-carboxamide], the IC50 came out at 0.148 µM on Endothelial lipase (EL) and 3.93 µM against hepatic lipase (HL).
For the compound `CC(C)c1cc(CNC(=O)c2ccc3nc(C(C(=O)NCCS(N)(=O)=O)S(=O)(=O)CCC(F)(F)F)sc3c2)on1` (centres unmarked) [Example B199, N-((3-isopropyl-5-isoxazolyl)methyl)-2-(2-oxo-2-((2-sulfamoylethyl)a-mino)-1-((3,3,3-trifluoropropyl)sulfonyl)eth-yl)-1,3-benzothiazole-6-carboxamide], the values for the IC50 at Endothelial lipase (EL) and against hepatic lipase (HL) were 0.166 µM and 3.67 µM, respectively.
On the same counts, the results for `NS(=O)(=O)CCNC(=O)C(c1nc2ccc(C(=O)N3CC(F)(F)C3)cc2s1)S(=O)(=O)CCC(F)(F)F` (centres unmarked) [Example B200, 2-(6-((3,3-difluoro-1-azetidinyl)carbonyl)-1,3-benzothiazol-2-yl)-N-(2-sulfamoylethyl)-2-((3,3,3-trifluoropropyl)sulfonyl)a-cetamide] are 0.026 µM and 10 µM.
Take `NS(=O)(=O)CCNC(=O)C(c1nc2ccc(C(=O)N3CCc4ccccc4C3)cc2s1)S(=O)(=O)CCC(F)(F)F` (centres unmarked) [Example B201, 2-(6-(3,4-dihydro-2(1H)-isoquinolinylcarbonyl)-1,3-benzothiazol-2-yl)-N-(2-sulfamoylethyl)-2-((3,3,3-trifluoropropyl)sulfonyl)a-cetamide]: the figures for the half-maximal inhibitory concentration (IC50) on Endothelial lipase (EL) and at hepatic lipase (HL) were 0.023 µM and 0.311 µM, respectively.
